# Results as given in US10941114B2, “Small molecule lipid II inhibitors” (University Of Maryland, Baltimore, priority 2015, dated 2021).
# Counter-ions that a name gives are not always drawn.
# Tested on: Staphylococcus aureus
# Assay: Antibacterial activity assay (MIC, broth dilution)
# Format: cell-based
# Design: S. aureus Killing / Bacterial Killing S. aureus: unit not given here
# Settings: Staphylococcus aureus; Table 21; read-out: Staphylococcus aureus MIC
row,SMILES,MIC [µg/mL]
1,CN(C)c1ccc(/C=C/c2cc(-c3ccc(C(F)(F)F)cc3)cc(-c3ccc(C(F)(F)F)cc3)[o+]2)cc1.F[B-](F)(F)F,> 64

# Same assay, conditions: anti-bacterial activity (MIC); strain not stated
row,SMILES,S. aureus Killing
1,"Cc1cc(C)[o+]c(C)c1 [2,4,6-trimethylpyrylium boron tetrafluoride salt]",>64
2,"Cc1cc(-c2ccc(C)c(C)c2)cc(-c2ccc(C)c(C)c2)[o+]1 [2,4-bis(3,4-dimethylphenyl)-6-methylpyrylium boron tetrafluoride salt]",>64
3,"CN(C)c1ccc(/C=C/C=C/c2cc(-c3ccc(C(C)(C)C)cc3)cc(-c3ccc(C(C)(C)C)cc3)[o+]2)cc1 [2,4-bis(4-(tert-butyl)phenyl)-6-((1E,3E)-4-(4-(dimethylamino)phenyl)buta-1,3-dien-1-yl)pyrylium boron tetrafluoride salt]",64
4,"Cc1cc(-c2ccc(C(C)(C)C)cc2)cc(-c2ccc(C(C)(C)C)cc2)[o+]1 [2,4-bis(4-(tert-butyl)phenyl)-6-methylpyrylium boron tetrafiuoride salt]",>64
5,"CN(C)c1ccc(/C=C/C=C/c2cc(-c3ccc(Br)cc3)cc(-c3ccc(Br)cc3)[o+]2)cc1 [2,4-bis(4-bromophenyi)-6-((1E,3E)-4-(4-(dimetliylamino)phenyl)buta-1,3-dien-1-yl)pyrylium boron tetrafluoride salt]",>64
6,"CN(C)c1ccc(/C=C/C=C/c2cc(-c3ccc(Cl)cc3)cc(-c3ccc(Cl)cc3)[o+]2)cc1 [2,4-bis(4-chlorophenyl)-6-((1E,3E)-4-(4-(dimethylamino)phenyl)buta-1,3-dien-1-yl)pyrylium boron tetrafluoride salt]",>64
7,"Cc1cc(-c2ccc(Cl)cc2)cc(-c2ccc(Cl)cc2)[o+]1 [2,4-bis(4-chlorophenyl)-6-methylpyrylium boron tetrafluoride salt]",>64
8,"CCc1ccc(-c2cc(C)[o+]c(-c3ccc(CC)cc3)c2)cc1 [2,4-bis(4-ethylphenyl)-6-methylpyrylium boron tetrafluoride salt]",>64
9,"COc1ccc(-c2cc(C)[o+]c(-c3ccc(OC)cc3)c2)cc1 [2,4-bis(4-methoxyphenyl)-6-methylpyrylium boron tetrafluoride salt]",>64
10,"Cc1ccc(-c2cc(/C=C/C=C/c3ccc(N(C)C)cc3)[o+]c(-c3ccc(C)c(C)c3)c2)cc1C [2-((1E,3E)-4-(4-(dimethylamino)phenyl)buta-1,3-dien-1-yl)-4,6-bis(3,4~ dimethylphenyl) pyrylium boron tetrafluoride salt]",32
11,"CCc1ccc(-c2cc(/C=C/C=C/c3ccc(N(C)C)cc3)[o+]c(-c3ccc(CC)cc3)c2)cc1 [2-((1E,3E)-4-(4-(dimethylamino)phenyl)buta-1,3-dien-1-yl)-4,6-bis(4-ethylphenyl) pyrylium boron tetrafluoride salt]",8
12,"Cc1ccc(-c2cc(/C=C/C=C/c3ccc(N(C)C)cc3)[o+]c(-c3ccc(C)cc3)c2)cc1 [2-((1E,3E)-4-(4-(dimethylamino)phenyl)buta-1,3-dien-1-yl)-4,6-di-p-tolylpyrylium boron tetrafluoride salt]",2
13,"CN(C)c1ccc(/C=C/C=C/c2cc(-c3ccccc3)cc(-c3ccccc3)[o+]2)cc1 [2-((1E,3E)-4-(4-(dimethylamino)phenyl)buta-1,3-dien-1-yl)-4,6-diphenyl pyrylium boron tetrafluoride salt]",4
14,"Cc1cc(-c2ccccc2)cc(-c2ccccc2)[o+]1 [2-methy1-4,6-diphenylpyrylium boron tetrafluoride salt]",>64
15,"Cc1ccc(-c2cc(C)[o+]c(-c3ccc(C)cc3)c2)cc1 [2-methyl-4,6-di-p-tolylpyrylium boron tetrafluoride salt]",>64
16,"Cc1cc(/C=C/C=C/c2ccc(N(C)C)cc2)cc(C)[o+]1 [4-((1E,3E)-4-(4-(dimethylamino)phenyl)buta-1,3-dien-1-yl)-2,6-dimethylpyrylium boron tetrafluoride salt]",32
17,"Cc1ccc(-c2cc(/C=C/c3cn(C)c4ccccc34)[o+]c(-c3ccc(C)c(C)c3)c2)cc1C [(E)-2,4-bis(3,4-dimethylphenyl)-6-(2-(1-methyl-1H-indol-3-yl)vinyl)pyrylium boron tetrafluoride salt]",1
18,"CC(C)(C)c1ccc(-c2cc(/C=C/c3cc4c5c(c3)CCCN5CCC4)[o+]c(-c3ccc(C(C)(C)C)cc3)c2)cc1 [(E)-2,4-bis(4-(tert-butyl)phenyl)-6-(2-(1,2,3,5,6,7-hexahydropyrido [3,2,1-ij]quinolin-9-yl)vinyl)pyrylium boron tetrafluoride salt]",32

row,SMILES,S. aureus Killing
1,"Cn1cc(/C=C/c2cc(-c3ccc(C(C)(C)C)cc3)cc(-c3ccc(C(C)(C)C)cc3)[o+]2)c2ccccc21 [(E)-2,4-bis(4-(tert-butyl)phenyl)-6-(2-(1-methyl-1H-indol-3-yl)vinyl)pyrylium boron tetrafluoride salt]",16
2,"CN(C)c1ccc(/C=C/c2cc(-c3ccc(C(C)(C)C)cc3)cc(-c3ccc(C(C)(C)C)cc3)[o+]2)cc1 [(E)-2,4-bis(4-(tert-butyl)phenyl)-6-(4-(dimethylamino)styryl)pyrylium boron tetrafluoride salt]",8
3,"Cn1cc(/C=C/c2cc(-c3ccc(Br)cc3)cc(-c3ccc(Br)cc3)[o+]2)c2ccccc21 [(E)-2,4-bis(4-bromophenyl)-6-(2-(1-methyl-1H-indol-3-yl)vinyl)pyrylium boron tetrafluoride salt]",64
4,"Clc1ccc(-c2cc(/C=C/c3cc4c5c(c3)CCCN5CCC4)[o+]c(-c3ccc(Cl)cc3)c2)cc1 [(E)-2,4-bis(4-chlorophenyl)-6-(2-(1,2,3,5,6,7-hexahydropyrido [3,2,1-ij]quinolin-9-yl)vinyl)pyrylium boron tetrafluoride salt]",1
5,"Cn1cc(/C=C/c2cc(-c3ccc(Cl)cc3)cc(-c3ccc(Cl)cc3)[o+]2)c2ccccc21 [(E)-2,4-bis(4-chlorophenyl)-6-(2-(1-methyl-1H-indol-3-yl)vinyl)pyrylium boron tetrafluoride salt]",64
6,"Brc1ccc(-c2cc(/C=C/c3cc4c5c(c3)CCCN5CCC4)[o+]c(-c3ccc(Br)cc3)c2)cc1 [(E)-2,4-bis(4~ bromophenyl)-6-(2-(1,2,3,5,6,7-hexahydropyrido [3,2,1-ij]quinolin-9-yl)vinyl)pyrylium boron tetrafluoride salt]",4
7,"Cc1ccc(-c2cc(/C=C/c3cc4c5c(c3)CCCN5CCC4)[o+]c(-c3ccc(C)cc3)c2)cc1 [(E)-2-(2-(1,2,3,5,6,7-hexahydropyrido [3,2,1-ij]quinolin-9-yl)vinyl)-4,6-di-p-tolylpyrylium boron tetrafluoride salt]",1
8,"C(=C\c1cc(-c2ccccc2)cc(-c2ccccc2)[o+]1)/c1cc2c3c(c1)CCCN3CCC2 [(E)-2-(2-(1,2,3,5,6,7-hexahydropyrido [3,2,1-ij]quinolin-9-yl)vinyl)-4,6-diphenylpyrylium boron tetrafluoride salt]",1
9,"Cc1ccc(-c2cc(/C=C/c3cn(C)c4ccccc34)[o+]c(-c3ccc(C)cc3)c2)cc1 [(E)-2-(2-(1-methyl-1H-indol-3-yl)vinyl)-4,6-di-p-tolylpyrylium boron tetrafluoride salt]",0.5
10,"Cn1cc(/C=C/c2cc(-c3ccccc3)cc(-c3ccccc3)[o+]2)c2ccccc21 [(E)-2-(2-(1-methyl-1H-indol-3-yl)vinyl)-4,6-diphenylpyrylium boron tetrafluoride salt]",0.5
11,"Cc1ccc(-c2cc(/C=C/c3c[nH]c4ccccc34)[o+]c(-c3ccc(C)c(C)c3)c2)cc1C [(E)-2-(2-(1H-indol-3-yl)vinyl)-4,6-bis(3,4-dimethylphenyl) pyrylium boron tetrafluoride salt]",4
12,"Brc1ccc(-c2cc(/C=C/c3c[nH]c4ccccc34)[o+]c(-c3ccc(Br)cc3)c2)cc1 [(E)-2-(2-(1H-indol-3-yl)vinyl)-4,6-bis(4-bromophenyl) pyrylium boron tetrafluoride salt]",>64
13,"Clc1ccc(-c2cc(/C=C/c3c[nH]c4ccccc34)[o+]c(-c3ccc(Cl)cc3)c2)cc1 [(E)-2-(2-(1H-indol-3-yl)vinyl)-4,6-bis(4-chlorophenyl) pyrylium boron tetrafluoride salt]",16
14,"CCc1ccc(-c2cc(/C=C/c3c[nH]c4ccccc34)[o+]c(-c3ccc(CC)cc3)c2)cc1 [(E)-2-(2-(1H-indol-3-yl)vinyl)-4,6-bis(4-ethylphenyl) pyrylium boron tetrafluoride salt]",4
15,"Cc1ccc(-c2cc(/C=C/c3c[nH]c4ccccc34)[o+]c(-c3ccc(C)cc3)c2)cc1 [(E)-2-(2-(1H-indol-3-yl)vinyl)-4,6-di-p-tolylpyiylium boron tetrafluoride salt]",4
16,"C(=C\c1c[nH]c2ccccc12)/c1cc(-c2ccccc2)cc(-c2ccccc2)[o+]1 [(E)-2-(2-(1H-indol-3-yl)vinyl)-4,6-diphenylpyrylium boron tetrafluoiide salt]",1
17,"CC(C)(C)c1ccc(-c2cc(/C=C/c3c[nH]c4ccccc34)[o+]c(-c3ccc(C(C)(C)C)cc3)c2)cc1 [(E)-2-(2-(1H-mdol-3-yl)vinyl)-4,6-bis(4-(tert-butyl)phenyl) pyrylium boron tetrafluoride salt]",32
18,"Cc1ccc(-c2cc(/C=C/c3ccc(N(C)C)cc3)[o+]c(-c3ccc(C)c(C)c3)c2)cc1C [(E)-2-(4-(dimethylamino)styryl)-4,6-bis(3,4-dimethylphenyl) pyrylium boron tetrafluoride salt]",2
